Columns and labels:
[1] = system: 14-3-3 SFN protein / ERα phosphopeptide substrate; test: Fluorescence polarization, 14-3-3 SFN with ERα phosphopeptide substrate; format: binding; conditions: SFN with C38 and C96 mutated to serines
Procedure: We performed a fluorescence polarization screen with our cysteine-reactive covalent ligand libraries to identify 14-3-3 covalent molecular glues that enhance interactions of SFN with phosphopeptide 14-3-3 interacting sequences ERα. This screen was performed with recombinant pure 14-3-3 SFN protein and a 5-FAM- or rhodamine-conjugated ERα phosphopeptide substrate looking for cysteine-reactive covalent ligands that would stabilize 14-3-3 interactions with the phosphopeptide substrate.

[2] = system: Hippo pathway transcription factor luciferase reporter in MCF7 breast cancer cells; test: Hippo pathway transcription factor luciferase reporter activity; format: cell-based
Source text: (§1) […]. […] […]. […] […].

[3] = system: SFN / TAZ phosphopeptide substrate; test: Fluorescence polarization, 14-3-3 SFN with TAZ phosphopeptide substrate; format: binding; conditions: SFN with C38 and C96 mutated to serines
[4] = system: ERα transcription factor luciferase reporter in T47D breast cancer cells; test: ERα luciferase reporter activity; format: cell-based
Source text: as §1

[5] = SFN knockdown, breast cancer cells

Structure (SMILES): C=CC(=O)N1CCC2(CCN(Cc3ccccc3)C2)C1 (stereo not drawn) [EN171]
- EN171-mediated stabilization of 14-3-3 interactions with ERα [1]: significantly attenuated
- Inhibition of Hippo pathway transcription factor luciferase reporter activity ([2]; MCF7 breast cancer cells): dose-responsive inhibition
- EN171-mediated inhibition of Hippo pathway transcriptional activity [2, 5]: significantly attenuated
- EN171-mediated stabilization of 14-3-3 interactions with TAZ [3]: significantly attenuated
- EN171-mediated inhibition of ERα transcriptional activity [4, 5]: significantly attenuated
- Inhibition of ERα luciferase reporter activity ([4]; T47D breast cancer cells): dose-responsive inhibition

From US20240319200A1, “Covalent Molecular Glue Stabilizers and Platform” (The Regents of the University of California, priority 2021, published 2024)
